Key:
[1] = system: EAAT2; test: [3H]glutamate uptake assay in PA-EAAT2 cells; format: cell-based, human; conditions: PA-EAAT2 cells (FIG. 6D)
Description: (§1) Characterization and efficacy studies of a compound, Compound 212320 (FIG. 6A) is shown. […] In the absence of serum, PA-EAAT2 cells express low amounts of EAAT2 protein, although the recombinant EAAT2 mRNA are expressed (translational silencing); however, EAAT2 protein levels are increased when an activator is added to the culture (translational activation). This cell line was used for high-throughput screening to identify EAAT2 translational activators. To prioritize candidate compounds, we initially evaluated activation of EAAT2 protein in PA-EAAT2 cells. Promising compounds were further evaluated in primary dissociated neuron and astrocyte mixed cultures and then in mice. FIG. 6 presents the characterization of Compound 212320 in PA-EAAT2 cells. Compound 212320 increased EAAT2 protein levels in a dose—(FIG. 6B) and time—(FIG. 6C) dependent manner. Importantly, the induction occurred in a short amount of time (within 1-2 hr) and was sustained even up to 72 hr (data not show). Additionally, induction occurred at low nanomolar concentrations. […] (FIG. 6D).

[2] = system: EAAT2; test: Immunofluorescent staining of induced EAAT2 protein in PA-EAAT2 cells; format: cell-based, human; conditions: PA-EAAT2 cells (FIG. 6E)
Description: as §1

[3] = system: EAAT2 mRNA; test: Quantitative real-time RT-PCR of EAAT2 mRNA in PA-EAAT2 cells; format: cell-based, human; conditions: PA-EAAT2 cells (FIG. 6F)
Description: as §1

[4] = system: APPSw/Ind transgenic mice; test: Alzheimer's disease model, Y-maze test; format: in vivo, mouse; conditions: 40 mg/kg i.p. daily for 10 days, 7-month-old mice
Description: Compound 212320 was evaluated in APPSw/Ind transgenic mice, an Alzheimer's disease model. […] 7-month-old mice were treated with 40 mg/kg of Compound 212320 by intraperitoneal injection daily for 10 days and then evaluated the effects on short-term memory by Y-maze test. Compound 212320 restored short-term memory loss in APP mice after 10-day treatment (23 wild-type mice, 21 APP mice).
APPSw/Ind transgenic mice were treated with Compound 212320 at 40 mg/kg or vehicle intraperiotoneally beginning at 7 months after symptoms of memory loss are apparent. After daily treatment for 10 days, Y-maze was used to measure effects on short-term memory.

[5] = system: EAAT2; test: EAAT2 protein levels and glutamate uptake in forebrain plasma membrane vesicles after i.p. administration; format: in vivo, mouse; conditions: for EAAT2 protein levels increase / Glutamate uptake increase: single i.p. 40 mg/kg
Description: We next examined EAAT2 protein levels and glutamate uptake activities in brain following i.p. administration of Compound 212320 in C57BL/6 mice. Plasma membrane vesicles were prepared from mouse forebrains to measure functional EAAT2 protein. After a single i.p. dose of Compound 212320 at 40 mg/kg, EAAT2 protein levels and associated glutamate uptake increased to ˜1.5-2-fold at 2 hr and to ˜2-3-fold from 8 hr to 24 hr post-injection (FIG. 8B). Even at 72 hr, a ˜1.5 fold increase in EAAT2 protein levels could still be detected (data not shown). In addition, Compound 212320-induced EAAT2 protein levels and glutamate uptake were both dose-dependent (FIG. 8C). This induction was not due to transcriptional activation because EAAT2 mRNA was not increased as measured by quantitative real-time RT-PCR (FIG. 8D). We compared ceftriaxone (200 mg/kg), which increases EAAT2 expression through transcriptional activation, with Compound 212320 (40 mg/kg) that activates EAAT2 translation.

[6] = system: calcium channel L-type; test: In vitro side effect profiling: calcium channel L-type; format: binding; conditions: 10 μM, duplicate
Description: (§2) To assess Compound 212320's biological activity and selectivity, we performed an in vitro side effect profiling study. Seventy-one targets were tested at 10 μM in duplicate. These targets include neurotransmitter related receptors (30), steroids (2), ion channels (6), second messenger (1), prostaglandins (3), growth factors/hormones (4), brain/gut peptides (13), enzymes (5) and cytochrome p450 (7). […] Additionally, we performed a protein kinase profiling study. Compound 212320 was tested at 1 and 10 μM against 288 kinases. […] These studies indicate that Compound 212320 has high specificity and low side-effects/toxicity potential.

[7] = molecular target: EphA5 (Homo sapiens, UniProt P54756); test: Protein kinase profiling: EphA5; format: biochemical; conditions: read-out: EphA5 inhibited
Description: as §2

[8] = system: GFAP, GS, EAAT1, GAPDH, SOD1, actin, YB-1, RNA polymerase II, synaptophysin, EAAT3, EAAT4, PSD95, AKT, PI3K, IkB-α, ERK2; test: Total protein and expression of other proteins (global protein synthesis); format: in vivo, mouse
Text: Furthermore, the following observations indicate that the effects of Compound 212320 on EAAT2 protein expression were not due to a general increase in protein synthesis. First, the total amount of protein in compound-treated cells and mice was not increased compared with that in vehicle-treated cells and mice. Secondly, we examined the expression of a variety of other proteins in mouse brains: astrocyte-specific proteins including GFAP, glutamine synthetase (GS), and EAAT1 (another astrocytic glutamate transporter subtype), several housekeeping proteins including GAPDH, SOD1, actin, YB-1, RNA polymerase II, several neuronspecific proteins including synaptophysin, EAAT3 (a neuronal glutamate transporter), EAAT4, PSD95, and several signaling proteins including AKT, PI3K, IkB-α and ERK2.

[9] = from 8 hr to 24 hr post-injection

Sequence of EphA5 (P54756 25-1037, species assumed): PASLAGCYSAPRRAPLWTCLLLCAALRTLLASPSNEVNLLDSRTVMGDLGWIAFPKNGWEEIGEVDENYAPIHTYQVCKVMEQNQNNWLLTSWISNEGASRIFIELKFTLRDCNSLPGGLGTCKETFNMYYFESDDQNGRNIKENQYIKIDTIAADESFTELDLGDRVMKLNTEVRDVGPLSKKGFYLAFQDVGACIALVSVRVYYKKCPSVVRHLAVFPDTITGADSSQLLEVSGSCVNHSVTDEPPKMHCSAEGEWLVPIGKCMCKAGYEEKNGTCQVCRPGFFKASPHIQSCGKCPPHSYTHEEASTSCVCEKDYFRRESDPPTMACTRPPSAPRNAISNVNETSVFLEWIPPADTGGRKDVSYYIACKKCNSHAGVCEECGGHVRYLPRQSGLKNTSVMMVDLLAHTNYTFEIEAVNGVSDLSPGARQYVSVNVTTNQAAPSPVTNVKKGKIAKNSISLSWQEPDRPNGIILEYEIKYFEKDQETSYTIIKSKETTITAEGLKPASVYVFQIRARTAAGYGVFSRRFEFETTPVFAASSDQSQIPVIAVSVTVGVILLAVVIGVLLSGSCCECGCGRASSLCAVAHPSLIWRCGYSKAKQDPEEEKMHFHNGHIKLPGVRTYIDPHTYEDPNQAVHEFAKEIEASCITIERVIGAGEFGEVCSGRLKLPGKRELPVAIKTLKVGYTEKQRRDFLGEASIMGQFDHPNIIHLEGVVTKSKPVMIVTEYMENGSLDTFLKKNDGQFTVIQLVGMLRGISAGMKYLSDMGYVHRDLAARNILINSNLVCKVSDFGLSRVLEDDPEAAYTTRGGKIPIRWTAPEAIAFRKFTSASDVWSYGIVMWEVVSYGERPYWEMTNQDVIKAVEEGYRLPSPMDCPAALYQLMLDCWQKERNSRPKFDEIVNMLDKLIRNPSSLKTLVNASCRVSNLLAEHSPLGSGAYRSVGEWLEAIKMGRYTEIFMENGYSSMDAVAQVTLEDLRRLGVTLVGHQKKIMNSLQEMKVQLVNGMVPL

## Cc1ccccc1CSc1ccc(-c2ccccn2)nn1 [Compound 7-4]
[1]
  Glutamate uptake function: correlated to increased EAAT2 protein levels
[2]
  Localization of induced EAAT2 protein: properly localized to the plasma membrane
[3]
  EAAT2 mRNA levels: not changed
[4]
  Short-term memory loss (Y-maze test): restored
[5]; 40 mg/kg vs ceftriaxone 200 mg/kg, a single dose after 24 hr
  EAAT2 induction compared with ceftriaxone: greater EAAT2 induction than ceftriaxone
[5]; FIG. 8C
  Induced EAAT2 protein levels, dose dependence: dose-dependent
  Induced glutamate uptake, dose dependence: dose-dependent
[5]; 2 hr post-injection
  EAAT2 protein levels increase: 1.5-2 fold
  Glutamate uptake increase: 1.5-2 fold
[5]; 72 hr, data not shown
  EAAT2 protein levels increase: ~1.5 fold
[5]; [9]
  EAAT2 protein levels increase: 2-3 fold
  Glutamate uptake increase: 2-3 fold
[6]
  inhibition on calcium channel L-type: 43%
[7]
  inhibition at 10 µM: 44%
[8]; FIG. 8F
  Induction of other proteins in mouse brains: None of the above proteins were induced
[8]; compound-treated cells and mice
  Total amount of protein vs vehicle: not increased

— patent publication US9447075B2, “Pyridazine derivatives as EAAT2 activators” (The Brigham and Women's Hospital, Inc., priority 2011, dated 2016)
